Tested on: 422866-222-R5-J1-PDC spheroids with HUVEC/MSC, viability
Experiment: Anticancer human tumor 422866-222-R5-J1-PDC patient-derived pancreatic adenocarcinoma cell line growth inhibition [GQUAD]
Conditions: for IC50: curve of first compound; for viability, T/C: stronger effect = lower value
Method in brief: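 Multi-cell-type spheroids of tumor cells with HUVEC and mesenchymal stem cells, treated with drug combinations. Concentrations descend in half-log steps from near clinical Cmax, or from 10 microM where Cmax is unknown; viability read-out.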

[1] = second compound 0.0316 µM, first compound 0.0316 µM
[2] = second compound 0.0316 µM, first compound 0.316 µM
[3] = second compound 0.1 µM, first compound 0.0316 µM
[4] = second compound 0.1 µM, first compound 0.316 µM
[5] = second compound 0.316 µM, first compound 0.0316 µM
[6] = second compound 0.316 µM, first compound 0.316 µM
[7] = second compound 1 µM, first compound 0.0316 µM
[8] = second compound 1 µM, first compound 0.316 µM
[9] = second compound 3.16 µM, first compound 0.0316 µM
[10] = second compound 3.16 µM, first compound 0.316 µM
[11] = second compound 10 µM, first compound 0.0316 µM
[12] = second compound 10 µM, first compound 0.316 µM
[13] = second compound 0.0316 µM, first compound 0.1 µM
[14] = second compound 0.0316 µM, first compound 1 µM
[15] = second compound 0.0316 µM, first compound 3.16 µM
[16] = second compound 0.0316 µM, first compound 10 µM
[17] = second compound 0.1 µM, first compound 0.1 µM
[18] = second compound 0.1 µM, first compound 1 µM
[19] = second compound 0.1 µM, first compound 3.16 µM
[20] = second compound 0.1 µM, first compound 10 µM
[21] = second compound 0.316 µM, first compound 0.1 µM
[22] = second compound 0.316 µM, first compound 1 µM
[23] = second compound 0.316 µM, first compound 3.16 µM
[24] = second compound 0.316 µM, first compound 10 µM
[25] = second compound 1 µM, first compound 0.1 µM
[26] = second compound 1 µM, first compound 1 µM
[27] = second compound 1 µM, first compound 3.16 µM
[28] = second compound 1 µM, first compound 10 µM
[29] = second compound 3.16 µM, first compound 0.1 µM
[30] = second compound 3.16 µM, first compound 1 µM
[31] = second compound 3.16 µM, first compound 3.16 µM
[32] = second compound 3.16 µM, first compound 10 µM
[33] = second compound 10 µM, first compound 0.1 µM
[34] = second compound 10 µM, first compound 1 µM
[35] = second compound 10 µM, first compound 3.16 µM
[36] = second compound 10 µM, first compound 10 µM
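Also: spheroids exposed to compounds for seven days before reading.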
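For viability, T/C in this document: percent viability relative to DMSO vehicle control taken as 100%.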

For `Cc1[nH]c2ccccc2c1CCNCc1ccc(/C=C/C(=O)NO)cc1` + CN(C)c1ccc(Nc2c3ccc(NC(=O)CCN4CCCC4)cc3nc3cc(NC(=O)CCN4CCCC4)ccc23)cc1, the IC50 (second compound 0.0316 µM) was > 0.316 µM, the IC50 (second compound 0.1 µM) was > 0.316 µM and the IC50 (second compound 0.316 µM) was > 0.316 µM. The IC50 (second compound 1 µM) was > 0.316 µM, the IC50 (second compound 3.16 µM) was > 0.316 µM and the IC50 (second compound 10 µM) was > 0.316 µM. It also gave a viability, T/C (second compound 0.0316 µM, first compound 0.000999 µM) of 118%, a viability, T/C (second compound 0.0316 µM, first compound 0.00316 µM) of 98.7% and a viability, T/C (second compound 0.0316 µM, first compound 0.00999 µM) of 116%. It also gave a viability, T/C [1] of 83.2%, a viability, T/C (second compound 0.0316 µM, first compound 0.0999 µM) of 54.3% and a viability, T/C [2] of 56.8%. The viability, T/C (second compound 0.1 µM, first compound 0.000999 µM) was 98.3%, the viability, T/C (second compound 0.1 µM, first compound 0.00316 µM) was 102% and the viability, T/C (second compound 0.1 µM, first compound 0.00999 µM) was 119%. For the same compound, the viability, T/C [3] was 89.9%, the viability, T/C (second compound 0.1 µM, first compound 0.0999 µM) was 73.5% and the viability, T/C [4] was 61.5%. For the same compound, the viability, T/C (second compound 0.316 µM, first compound 0.000999 µM) was 105%, the viability, T/C (second compound 0.316 µM, first compound 0.00316 µM) was 102% and the viability, T/C (second compound 0.316 µM, first compound 0.00999 µM) was 98.7%. It also gave a viability, T/C [5] of 76%, a viability, T/C (second compound 0.316 µM, first compound 0.0999 µM) of 69.4% and a viability, T/C [6] of 57%. The viability, T/C (second compound 1 µM, first compound 0.000999 µM) was 77.3%, the viability, T/C (second compound 1 µM, first compound 0.00316 µM) was 91.9% and the viability, T/C (second compound 1 µM, first compound 0.00999 µM) was 131%. It also gave a viability, T/C [7] of 112%, a viability, T/C (second compound 1 µM, first compound 0.0999 µM) of 63.3% and a viability, T/C [8] of 52%. For the same compound, the viability, T/C (second compound 3.16 µM, first compound 0.000999 µM) was 89.5%, the viability, T/C (second compound 3.16 µM, first compound 0.00316 µM) was 97.3% and the viability, T/C (second compound 3.16 µM, first compound 0.00999 µM) was 102%. For the same compound, the viability, T/C [9] was 103%, the viability, T/C (second compound 3.16 µM, first compound 0.0999 µM) was 80.4% and the viability, T/C [10] was 56.4%. The viability, T/C (second compound 10 µM, first compound 0.000999 µM) was 96%, the viability, T/C (second compound 10 µM, first compound 0.00316 µM) was 95.4% and the viability, T/C (second compound 10 µM, first compound 0.00999 µM) was 98.8%. The viability, T/C [11] was 109%, the viability, T/C (second compound 10 µM, first compound 0.0999 µM) was 75.2% and the viability, T/C [12] was 53.7%.
`CC1COCCN1c1cc(C2(S(C)(=N)=O)CC2)nc(-c2ccnc3[nH]ccc23)n1` (stereo not drawn) + Cc1cnc(CNC(=O)c2c(=O)c3ccc(N4CCCN(C)CC4)nc3n3c2sc2ccccc23)cn1 was tested, and the IC50 (second compound 0.0316 µM) was > 10 µM, the IC50 (second compound 0.1 µM) was > 10 µM and the IC50 (second compound 0.316 µM) was > 10 µM. For the same compound, the IC50 (second compound 1 µM) was > 10 µM, the IC50 (second compound 3.16 µM) was > 10 µM and the IC50 (second compound 10 µM) was > 10 µM. It also gave a viability, T/C [1] of 102%, a viability, T/C [13] of 103% and a viability, T/C [2] of 95.1%. The viability, T/C [14] was 80.8%, the viability, T/C [15] was 71% and the viability, T/C [16] was 50.7%. The viability, T/C [3] was 104%, the viability, T/C [17] was 102% and the viability, T/C [4] was 96.2%. For the same compound, the viability, T/C [18] was 80%, the viability, T/C [19] was 67.7% and the viability, T/C [20] was 53.6%. The viability, T/C [5] was 91.7%, the viability, T/C [21] was 98.5% and the viability, T/C [6] was 99.5%. It also gave a viability, T/C [22] of 96.2%, a viability, T/C [23] of 77.4% and a viability, T/C [24] of 61.2%. It also gave a viability, T/C [7] of 83.2%, a viability, T/C [25] of 92.8% and a viability, T/C [8] of 103%. The viability, T/C [26] was 86.3%, the viability, T/C [27] was 72.8% and the viability, T/C [28] was 77.6%. The viability, T/C [9] was 93.9%, the viability, T/C [29] was 96.6% and the viability, T/C [10] was 90.2%. The viability, T/C [30] was 94.7%, the viability, T/C [31] was 78.1% and the viability, T/C [32] was 71.6%. The viability, T/C [11] was 89.7%, the viability, T/C [33] was 92.3% and the viability, T/C [12] was 93.1%. For the same compound, the viability, T/C [34] was 87.7%, the viability, T/C [35] was 82% and the viability, T/C [36] was 64.7%.
With `CC1COCCN1c1cc(C2(O)CC3CCC(C2)O3)c2cnn(-c3ccn[nH]3)c2n1` (stereo not drawn) + Cc1[nH]c2ccc(F)cc2c1-c1nc2c3cccnc3c3ncccc3c2[nH]1 the IC50 (second compound 0.0316 µM) was 0.0316 µM, the IC50 (second compound 0.1 µM) was > 10 µM and the IC50 (second compound 0.316 µM) was > 10 µM. For the same compound, the IC50 (second compound 1 µM) was > 10 µM, the IC50 (second compound 3.16 µM) was < 0.0316 µM and the IC50 (second compound 10 µM) was > 10 µM. For the same compound, the viability, T/C [1] was 74.6%, the viability, T/C [13] was 47.4% and the viability, T/C [2] was 48.1%. The viability, T/C [14] was 48%, the viability, T/C [15] was 87.5% and the viability, T/C [16] was 92%. For the same compound, the viability, T/C [3] was 73.3%, the viability, T/C [17] was 55.9% and the viability, T/C [4] was 42.1%. For the same compound, the viability, T/C [18] was 62.2%, the viability, T/C [19] was 88% and the viability, T/C [20] was 90.3%. For the same compound, the viability, T/C [5] was 85.4%, the viability, T/C [21] was 52.6% and the viability, T/C [6] was 37.4%. The viability, T/C [22] was 79.1%, the viability, T/C [23] was 97.1% and the viability, T/C [24] was 109%. The viability, T/C [7] was 70.4%, the viability, T/C [25] was 39.1% and the viability, T/C [8] was 44.1%. The viability, T/C [26] was 79.9%, the viability, T/C [27] was 98.2% and the viability, T/C [28] was 114%. For the same compound, the viability, T/C [9] was 51.7%, the viability, T/C [29] was 43.8% and the viability, T/C [10] was 49.8%. It also gave a viability, T/C [30] of 82.9%, a viability, T/C [31] of 90.8% and a viability, T/C [32] of 90.8%. The viability, T/C [11] was 54.7%, the viability, T/C [33] was 47.8% and the viability, T/C [12] was 51.2%. It also gave a viability, T/C [34] of 85.4%, a viability, T/C [35] of 84.5% and a viability, T/C [36] of 90.8%.
Work on `COc1cc(C2c3cc4c(cc3C(OC3OC5COC(C)OC5C(O)C3O)C3COC(=O)C23)OCO4)cc(OC)c1O` (stereo not drawn) + CN(C)c1ccc(Nc2c3ccc(NC(=O)CCN4CCCC4)cc3nc3cc(NC(=O)CCN4CCCC4)ccc23)cc1 yielded an IC50 (second compound 0.0316 µM) of 1.89 µM, an IC50 (second compound 0.1 µM) of 1.52 µM and an IC50 (second compound 0.316 µM) of 3.33 µM. The IC50 (second compound 1 µM) was 0.926 µM, the IC50 (second compound 3.16 µM) was 3.09 µM and the IC50 (second compound 10 µM) was 4.39 µM. For the same compound, the viability, T/C [1] was 97.3%, the viability, T/C [13] was 89% and the viability, T/C [2] was 84.5%. It also gave a viability, T/C [14] of 57.5%, a viability, T/C [15] of 41.4% and a viability, T/C [16] of 45.4%. For the same compound, the viability, T/C [3] was 116%, the viability, T/C [17] was 86.6% and the viability, T/C [4] was 70.9%. For the same compound, the viability, T/C [18] was 54.1%, the viability, T/C [19] was 40.9% and the viability, T/C [20] was 38.2%. The viability, T/C [5] was 101%, the viability, T/C [21] was 92.9% and the viability, T/C [6] was 73.8%. The viability, T/C [22] was 59.2%, the viability, T/C [23] was 50.7% and the viability, T/C [24] was 46.3%. For the same compound, the viability, T/C [7] was 92%, the viability, T/C [25] was 79.4% and the viability, T/C [8] was 63.9%. It also gave a viability, T/C [26] of 47.1%, a viability, T/C [27] of 44.4% and a viability, T/C [28] of 38.1%. The viability, T/C [9] was 85.7%, the viability, T/C [29] was 76.2% and the viability, T/C [10] was 65.9%. The viability, T/C [30] was 56.2%, the viability, T/C [31] was 49.9% and the viability, T/C [32] was 46%. It also gave a viability, T/C [11] of 73.2%, a viability, T/C [33] of 80.8% and a viability, T/C [12] of 67.1%. It also gave a viability, T/C [34] of 63.9%, a viability, T/C [35] of 55.9% and a viability, T/C [36] of 38.2%.

Reference: PubChem BioAssay AID2060511 (Molecular Pharmacology Branch, DTP, NCI, 2025)
